Reference: the supplement of paper PMC12317010
Structures can show the parent of a compound that is named as a salt.

Assay: collision cross section in nitrogen (drift tube, single-field); higher = larger gas-phase ion size
[1] = ion type: [M+H], ion source: APCI, ion mode: Positive
[2] = ion type: [M+H], ion source: ESI, ion mode: Positive
[3] = ion type: [M+Na], ion source: ESI, ion mode: Positive
[4] = ion type: [M-H], ion source: ESI, ion mode: Negative
[5] = ion source: ESI, ion mode: Positive, ion type: [M]+ (permanent cation)
[6] = ion type: [M+], ion source: APCI, ion mode: Positive
[7] = ion source: APCI, ion mode: Positive, ion type: [M]+ (permanent cation)
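Note: chemical standards at 10 µM analysed by drift tube IMS-QTOF MS in about 3.95 torr nitrogen, mean of duplicate injections differing ≤1%, mass error below 10 ppm.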

| SMILES | collision cross section in nitrogen [1] | collision cross section in nitrogen [2] | collision cross section in nitrogen [3] | collision cross section in nitrogen [4] | further results |
| --- | --- | --- | --- | --- | --- |
| c1ccc([C@H]2CN3CCSC3=N2)cc1 [Levamisole hydrochloride] | 144.2 Å² | 144.8 Å² | 155.8 Å² | – | – |
| CCCCCC(C)OC(=O)COc1ccc(Cl)c2cccnc12 (stereo not drawn) [Cloquintocet-mexyl] | 182.1 Å² | 181.9 Å² | 195.1 Å² | – | – |
| CCC(CC)Nc1c([N+](=O)[O-])cc(C)c(C)c1[N+](=O)[O-] [Pendimethalin] | – | – | – | 163.7 Å² | – |
| O=C(O)c1cc2ccccc2cc1O [3-Hydroxy-2-naphthoic acid] | – | – | – | 135.6 Å² | – |
| Oc1ccc(Cl)cc1Cc1cc(Cl)ccc1O [Dichlorophen] | – | – | – | 155.8 Å² | – |
| O=C(OCc1ccccc1)c1ccccc1O [Benzyl salicylate] | – | – | – | 153.3 Å² | – |
| COc1ncc(F)c2nc(S(=O)(=O)Nc3c(F)cccc3F)nn12 [Florasulam] | 172.3 Å² | 172.1 Å² | 181.7 Å² | 174.5 Å² | – |
| O=C(NS(=O)(=O)/C=C/c1cccs1)c1ccc(F)cc1Br | – | – | 189 Å² | 178 Å² | – |
| CN1CCC[C@H]1c1cccnc1 [(-)-Nicotine] | 136.5 Å² | 137.2 Å² | – | – | – |
| CC(C)(c1ccc(O)cc1)c1ccc(C(C)(C)c2ccc(O)cc2)cc1 [Bisphenol P] | – | – | – | 180.1 Å² | – |
| CC(C1CC1)C(O)(Cn1cncn1)c1ccc(Cl)cc1 (stereo not drawn) [Cyproconazole] | 170.6 Å² | 170.2 Å² | – | – | – |
| Cc1cc(C(C)(C)c2cc(C)c(O)c(C)c2)cc(C)c1O [4,4'-Propane-2,2-diylbis(2,6-dimethylphenol)] | – | – | – | 182.9 Å² | – |
| Cc1ncc(C[n+]2csc(CCO)c2C)c(N)n1 [Thiamine] | – | – | – | – | collision cross section in nitrogen [5]: 162.7 Å² |
| Nc1nc[nH]n1 [Amitrole] | – | – | – | 113.2 Å² | – |
| N[C@H](Cc1c[nH]c2ccccc12)C(=O)O [d-Tryptophan] | – | – | – | 151.5 Å² | – |
| CCN(CCC#N)c1ccccc1 [3-[Ethyl(phenyl)amino]propanenitrile] | 138.5 Å² | 139.3 Å² | – | – | – |
| Nc1ccc(-c2ccc(N)cc2)cc1 [4,4′-Diamino-1,1′-biphenyl] | 156.9 Å² | 157 Å² | – | – | collision cross section in nitrogen [6]: 139.4 Å² |
| Cc1cc(Cc2ccc(N)c(C)c2)ccc1N [4,4'-Methylenebis(o-toluidine)] | 179.1 Å² | 171.2 Å² | – | – | – |
| C#C[C@]1(O)CC[C@H]2[C@@H]3CCC4=CC(=O)CC[C@@H]4[C@H]3CC[C@@]21C [Norethindrone] | – | 178.1 Å² | – | – | – |
| CCOP(=S)(OCC)Oc1cc(C)nc(N(CC)CC)n1 [Pirimiphos-ethyl] | 176.3 Å² | 178.3 Å² | 181.5 Å² | – | – |

| SMILES | collision cross section in nitrogen [1] | collision cross section in nitrogen [2] | collision cross section in nitrogen [3] | collision cross section in nitrogen [4] | further results |
| --- | --- | --- | --- | --- | --- |
| CC(C)c1c(C(=O)Nc2ccccc2)c(-c2ccccc2)c(-c2ccc(F)cc2)n1CC[C@@H](O)C[C@@H](O)CC(=O)O [Atorvastatin calcium] | 229.8 Å² | 230.3 Å² | 232.2 Å² | 228.6 Å² | collision cross section in nitrogen [6]: 224.3 Å² |
| CN(C)c1ccc(C=O)cc1 [4-Dimethylaminobenzaldehyde] | 129.3 Å² | 129 Å² | – | – | – |
| O=C(O)C1(c2ccc3c(c2)OC[C@H](Cc2ccc(-c4ccccc4)cc2)[C@H]3O)CCCC1 | – | – | 202.9 Å² | – | – |
| O=C(O)c1ccc(Cl)cc1C(=O)O [Monosodium hydrogen 4-chlorophthalate] | – | – | – | 132.5 Å² | – |
| CCNc1nc(Cl)nc(NCC)n1 [Simazine] | 143.3 Å² | 144 Å² | – | – | – |
| CC(=O)c1ccc(N)cc1 [4-Aminoacetophenone] | – | – | – | 125 Å² | – |
| CC(C)OC(=O)c1ccccc1C(=O)OC(C)C [Diisopropyl phthalate] | – | – | 169.9 Å² | – | – |
| Cc1ccc(C(C)NC(=O)[C@@H](NC(=O)OC(C)C)C(C)C)cc1 (stereo partly drawn) [Iprovalicarb] | 184.2 Å² | – | 183.5 Å² | – | – |
| CCCCCCCCOC(=O)c1ccccc1C(=O)OCCCCCCCC [Di-n-octyl phthalate] | – | – | 214.6 Å² | – | – |
| COCC(=O)N(c1c(C)cccc1C)[C@H](C)C(=O)OC [Metalaxyl-M] | 160.5 Å² | 160 Å² | 168.8 Å² | – | – |
| c1ccc(Nc2cccc3ccccc23)cc1 [N-Phenyl-1-naphthylamine] | 149.7 Å² | – | – | 152.1 Å² | collision cross section in nitrogen [6]: 148.7 Å² |
| Nc1nc(Cl)nc2c1ncn2[C@H]1C[C@H](O)[C@@H](CO)O1 [Cladribine] | 157.2 Å² | 157 Å² | 165.8 Å² | 159.5 Å² | – |
| COP(=S)(OC)Oc1c(Cl)cc(C)cc1Cl [Tolclofos-methyl] | – | 153.6 Å² | 169.1 Å² | – | – |
| Nc1cnn(-c2ccccc2)c(=O)c1Cl [Chloridazon] | 143.6 Å² | 144 Å² | 158 Å² | 143.7 Å² | – |
| CS(=O)(=O)c1ccc(C(=O)C2C(=O)CCCC2=O)c(Cl)c1COCC(F)(F)F [Tembotrione] | – | 189.3 Å² | 185.1 Å² | 188.5 Å² | – |
| CC(C)c1ccc(S(=O)(=O)O)cc1 [4-Isopropylbenzenesulfonic acid] | – | – | – | 147.7 Å² | – |
| CCC[C@H](N[C@@H](C)C(=O)N1[C@H](C(=O)O)C[C@@H]2CCCC[C@@H]21)C(=O)OCC [Perindopril erbumine] | – | 189.7 Å² | 196.4 Å² | 190.7 Å² | – |
| Nc1ccnc(=O)[nH]1 [Cytosine] | 117.3 Å² | 118.8 Å² | – | – | – |
| CCCCCCCCCCCCN [Dodecylamine hydrochloride] | – | 164 Å² | – | – | – |
| CC(CCc1ccccc1)NCC(O)c1ccc(O)c(C(N)=O)c1 (stereo not drawn) [Labetalol hydrochloride] | 175.7 Å² | 175.2 Å² | 176.8 Å² | – | – |

| SMILES | collision cross section in nitrogen [1] | collision cross section in nitrogen [2] | collision cross section in nitrogen [3] | collision cross section in nitrogen [4] | further results |
| --- | --- | --- | --- | --- | --- |
| O=c1[nH]c2ccc(S(=O)CCN3CCC(Cc4ccc(F)cc4)CC3)cc2o1 (stereo not drawn) [Besonprodil] | 203.6 Å² | 203.4 Å² | 202 Å² | 188.5 Å² | – |
| CCCC[N+]1(C)CCCC1 [1-Butyl-1-methylpyrrolidinium chloride] | – | – | – | – | collision cross section in nitrogen [7]: 131.2 Å²; collision cross section in nitrogen [5]: 132.4 Å² |
| Cc1cc(-c2cc(C)c(N)c(C)c2)cc(C)c1N [3,3',5,5'-Tetramethylbenzidine] | 175.7 Å² | 176 Å² | – | – | collision cross section in nitrogen [6]: 162.4 Å² |
| OC(Cn1cncn1)(c1ccc(F)cc1)c1ccccc1F (stereo not drawn) [Flutriafol] | – | 167.5 Å² | 183.1 Å² | – | – |
| CCN(CC)C(=O)c1cccc(C)c1 [DEET] | 143.5 Å² | 143.6 Å² | 160.2 Å² | – | – |
| CC(C)CCCCCCOC(=O)CCCCC(=O)OCCCCCCC(C)C [Diisononyl adipate] | – | – | 219.4 Å² | – | – |
| COC(=O)N(C(=O)N1CO[C@@]2(C(=O)OC)Cc3cc(Cl)ccc3C2=N1)c1ccc(OC(F)(F)F)cc1 [Indoxacarb] | 206.6 Å² | 205.7 Å² | 220.4 Å² | – | – |
| CCOC=C(C(=O)OCC)C(=O)OCC [Diethyl ethoxymethylenemalonate] | – | – | 146.8 Å² | – | – |
| CO/N=C(/C(=O)OC)c1ccccc1CO/N=C(\C)c1cccc(C(F)(F)F)c1 [Trifloxystrobin] | 187.4 Å² | 187.2 Å² | 193 Å² | – | – |
| Cc1ccc2c(c1)CCCN2 [6-Methyl-1,2,3,4-tetrahydroquinoline] | 134.5 Å² | 134.8 Å² | – | – | – |
| N[C@@H](Cc1ccccc1)C(=O)O [L-Phenylalanine] | – | – | – | 140.8 Å² | – |
| CCOP(=S)(S)OCC [O,O′-Diethyl hydrogen dithiophosphate] | – | – | – | 135 Å² | – |
| CCCCC(=O)O[C@]1(C(=O)CO)[C@@H](C)C[C@H]2[C@@H]3CCC4=CC(=O)C=C[C@]4(C)[C@@]3(F)[C@@H](O)C[C@@]21C [Betamethasone valerate] | – | – | – | 215.5 Å² | – |
| CCOC(=O)COC(=O)c1cc(Oc2ccc(C(F)(F)F)cc2Cl)ccc1[N+](=O)[O-] [Fluoroglycofen-ethyl] | – | – | 210.7 Å² | – | – |
| CCCCCCCCCCCCCCCCCC[N+](C)(C)Cc1ccccc1 [Benzalkonium chloride C18 (BAC C18)] | – | – | – | – | collision cross section in nitrogen [7]: 215.1 Å²; collision cross section in nitrogen [5]: 216.6 Å² |
| CCCN(C1CCN(C(=O)C2CCNCC2)CC1)[C@@H]1CCc2ccc(OC)cc2C1 | 209 Å² | 199.1 Å² | 201 Å² | – | – |
| CCCCC(CC)COP(=O)(O)O (stereo not drawn) [2-Ethylhexyl dihydrogen phosphate] | – | – | – | 150.7 Å² | – |
| CCN(CC)c1ccc2cc(-c3nc4cc(S(N)(=O)=O)ccc4o3)c(=O)oc2c1 | – | 205.5 Å² | 219.6 Å² | 218.6 Å² | – |
